{"source": "patent US10487068B2", "about": "“Pyridazine derivatives as RORc modulators” (Genentech, Inc., priority 2015, dated 2019)", "note": "pIC50: −log10 of the molar value.", "data": [{"target": "T1, RORc ligand binding domain (Homo sapiens, UniProt P51449)", "T1 sequence (P51449 269-508 limits assumed)": "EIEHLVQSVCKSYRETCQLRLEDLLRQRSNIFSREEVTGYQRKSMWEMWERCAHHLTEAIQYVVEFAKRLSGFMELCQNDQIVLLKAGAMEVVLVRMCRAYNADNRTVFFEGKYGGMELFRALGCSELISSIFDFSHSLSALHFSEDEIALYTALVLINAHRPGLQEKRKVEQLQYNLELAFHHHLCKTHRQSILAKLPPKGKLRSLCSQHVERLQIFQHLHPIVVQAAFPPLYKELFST", "assay": "In Vitro RORc Ligand Binding Assay", "settings": "RORc IC50, radioligand 25-[3H]hydroxycholesterol 6 nM; 0.6 ug/mL RORc receptor; 3 h at 25° C.", "values": [{"compound": "CN(C)C(=O)c1cncc([C@@]23CC[C@@H](c4cc(-c5c(F)cccc5F)nnc42)C3(C)C)n1", "note": "[Example 28, 6-((5R,8S)-3-(2,6-difluorophenyl)-9,9-dimethyl-5,6,7,8-tetrahydro-5,8-methanocinnolin-8-yl)-N,N-dimethylpyrazine-2-carboxamide]", "pIC50": 7.38}, {"compound": "CC1(C)[C@H]2CC[C@]1(c1cncc(C(=O)NC3COC3)n1)c1nnc(-c3c(F)cccc3F)cc12", "note": "[Example 29, 6-((5R,8S)-3-(2,6-difluorophenyl)-9,9-dimethyl-5,6,7,8-tetrahydro-5,8-methanocinnolin-8-yl)-N-(oxetan-3-yl)pyrazine-2-carboxamide]", "pIC50": 7.37}, {"compound": "CC1(C)[C@H]2CC[C@]1(c1cncc(C(=O)N3CC(C#N)C3)n1)c1nnc(-c3c(F)cccc3F)cc12", "note": "[Example 30, 1-(6-((5R,8S)-3-(2,6-difluorophenyl)-9,9-dimethyl-5,6,7,8-tetrahydro-5,8-methanocinnolin-8-yl)pyrazine-2-carbonyl)azetidine-3-carbonitrile]", "pIC50": 6.84}, {"compound": "CC1(C)[C@H]2CC[C@]1(c1cncc(C(=O)N3CC(CO)C3)n1)c1nnc(-c3c(F)cccc3F)cc12", "note": "[Example 31, (6-((5R,8S)-3-(2,6-difluorophenyl)-9,9-dimethyl-5,6,7,8-tetrahydro-5,8-methanocinnolin-8-yl)pyrazin-2-yl)(3-(hydroxymethyl)azetidin-1-yl)methanone]", "pIC50": 7.03}, {"compound": "CC(=O)Nc1cncc([C@@]23CC[C@@H](c4cc(-c5c(F)cccc5F)nnc42)C3(C)C)n1", "note": "[Example 32, N-(6-((5R,8S)-3-(2,6-difluorophenyl)-9,9-dimethyl-5,6,7,8-tetrahydro-5,8-methanocinnolin-8-yl)pyrazin-2-yl)acetamide]", "pIC50": 7.66}, {"compound": "CC1(C)[C@H]2CC[C@]1(c1cncc(N)n1)c1nnc(-c3c(F)cccc3F)cc12", "note": "[Example 33, 6-((5R,8S)-3-(2,6-difluorophenyl)-9,9-dimethyl-5,6,7,8-tetrahydro-5,8-methanocinnolin-8-yl)pyrazin-2-amine]", "pIC50": 7.66}, {"compound": "CC1(C)[C@H]2CC[C@]1(c1cncc(NS(C)(=O)=O)n1)c1nnc(-c3c(F)cccc3F)cc12", "note": "[Example 34, N-(6-((5R,8S)-3-(2,6-difluorophenyl)-9,9-dimethyl-5,6,7,8-tetrahydro-5,8-methanocinnolin-8-yl)pyrazin-2-yl)methanesulfonamide]", "pIC50": 7.12}, {"compound": "Cc1nnc(-c2cncc([C@@]34CC[C@@H](c5cc(-c6c(F)cccc6F)nnc53)C4(C)C)n2)o1", "note": "[Example 35, 2-(6-((5R,8S)-3-(2,6-difluorophenyl)-9,9-dimethyl-5,6,7,8-tetrahydro-5,8-methanocinnolin-8-yl)pyrazin-2-yl)-5-methyl-1,3,4-oxadiazole]", "pIC50": 7.66}, {"compound": "COCCNC(=O)c1cncc([C@@]23CC[C@@H](c4cc(-c5c(F)cccc5F)nnc42)C3(C)C)n1", "note": "[Example 36, 6-((5R,8S)-3-(2,6-difluorophenyl)-9,9-dimethyl-5,6,7,8-tetrahydro-5,8-methanocinnolin-8-yl)-N-(2-methoxyethyl)pyrazine-2-carboxamide]", "pIC50": 7.43}, {"compound": "CC1(C)[C@H]2CC[C@]1(c1cccc(C(=O)N3CCOCC3)n1)c1nnc(-c3c(F)cccc3F)cc12", "note": "[Example 37, (6-((5R,8S)-3-(2,6-difluorophenyl)-9,9-dimethyl-5,6,7,8-tetrahydro-5,8-methanocinnolin-8-yl)pyridin-2-yl)(morpholino)methanone]", "pIC50": 7.32}, {"compound": "CN(CCO)C(=O)c1cccc([C@@]23CC[C@@H](c4cc(-c5c(F)cccc5F)nnc42)C3(C)C)n1", "note": "[Example 38, 6-((5R,8S)-3-(2,6-difluorophenyl)-9,9-dimethyl-5,6,7,8-tetrahydro-5,8-methanocinnolin-8-yl)-N-(2-hydroxyethyl)-N-methylpicolinamide]", "pIC50": 7.42}, {"compound": "COCCNC(=O)c1cccc([C@@]23CC[C@@H](c4cc(-c5c(F)cccc5F)nnc42)C3(C)C)n1", "note": "[Example 39, 6-((5R,8S)-3-(2,6-difluorophenyl)-9,9-dimethyl-5,6,7,8-tetrahydro-5,8-methanocinnolin-8-yl)-N-(2-methoxyethyl)picolinamide]", "pIC50": 7.94}, {"compound": "CC1(NC(=O)c2cccc([C@@]34CC[C@@H](c5cc(-c6c(F)cccc6F)nnc53)C4(C)C)n2)CC1", "note": "[Example 40, 6-((5R,8S)-3-(2,6-difluorophenyl)-9,9-dimethyl-5,6,7,8-tetrahydro-5,8-methanocinnolin-8-yl)-N-(1-methylcyclopropyl)picolinamide]", "pIC50": 8.00}, {"compound": "CC1(C)[C@H]2CC[C@]1(c1cncc(C(=O)NCCO)n1)c1nnc(-c3c(F)cccc3F)cc12", "note": "[Example 41, 6-((5R,8S)-3-(2,6-difluorophenyl)-9,9-dimethyl-5,6,7,8-tetrahydro-5,8-methanocinnolin-8-yl)-N-(2-hydroxyethyl)pyrazine-2-carboxamide]", "pIC50": 7.59}, {"compound": "CC1(C)[C@H]2CC[C@]1(c1cc(C#N)ccn1)c1nnc(-c3c(F)cccc3F)cc12", "note": "[Example 42]", "pIC50": 7.92}, {"compound": "CC1(C)[C@H]2CC[C@]1(c1nccc(C#N)n1)c1nnc(-c3c(F)cccc3F)cc12", "note": "[Example 43, 2-((5R,8R)-3-(2,6-difluorophenyl)-9,9-dimethyl-5,6,7,8-tetrahydro-5,8-methanocinnolin-8-yl)pyrimidine-4-carbonitrile]", "pIC50": 7.57}, {"compound": "CONC(=O)c1cccc([C@@]23CC[C@@H](c4cc(-c5c(F)cccc5F)nnc42)C3(C)C)n1", "note": "[Example 44, 6-((5R,8S)-3-(2,6-difluorophenyl)-9,9-dimethyl-5,6,7,8-tetrahydro-5,8-methanocinnolin-8-yl)-N-methoxypicolinamide]", "pIC50": 7.83}, {"compound": "CC1(C)[C@H]2CC[C@]1(c1cccc(C(N)=O)n1)c1nnc(-c3c(F)cccc3F)cc12", "note": "[Example 45, 6-((5R,8S)-3-(2,6-difluorophenyl)-9,9-dimethyl-5,6,7,8-tetrahydro-5,8-methanocinnolin-8-yl)picolinamide]", "pIC50": 8.06}, {"compound": "CC1(C)[C@H]2CC[C@]1(c1nccc(C(N)=O)n1)c1nnc(-c3c(F)cccc3F)cc12", "note": "[Example 46, 2-((5R,8R)-3-(2,6-difluorophenyl)-9,9-dimethyl-5,6,7,8-tetrahydro-5,8-methanocinnolin-8-yl)pyrimidine-4-carboxamide]", "pIC50": 7.36}, {"compound": "CNC(=O)c1ccnc([C@@]23CC[C@@H](c4cc(-c5c(F)cccc5F)nnc42)C3(C)C)n1", "note": "[Example 47, 2-((5R,8R)-3-(2,6-difluorophenyl)-9,9-dimethyl-5,6,7,8-tetrahydro-5,8-methanocinnolin-8-yl)-N-methylpyrimidine-4-carboxamide]", "pIC50": 7.23}, {"compound": "CC1(C)[C@@H]2CC[C@@]1(c1cccc(C(N)=O)n1)c1nnc(-c3c(F)cccc3F)cc12", "note": "[Example 48, 6-((5S,8R)-3-(2,6-difluorophenyl)-9,9-dimethyl-5,6,7,8-tetrahydro-5,8-methanocinnolin-8-yl)picolinamide]", "pIC50": 7.81}, {"compound": "C[C@@H](O)CNC(=O)c1cncc([C@@]23CC[C@@H](c4cc(-c5c(F)cccc5F)nnc42)C3(C)C)n1", "note": "[Example 49, 6-((5R,8S)-3-(2,6-difluorophenyl)-9,9-dimethyl-5,6,7,8-tetrahydro-5,8-methanocinnolin-8-yl)-N-((R)-2-hydroxypropyl)pyrazine-2-carboxamide]", "pIC50": 7.39}, {"compound": "C[C@H](O)CNC(=O)c1cncc([C@@]23CC[C@@H](c4cc(-c5c(F)cccc5F)nnc42)C3(C)C)n1", "note": "[Example 50, 6-((5R,8S)-3-(2,6-difluorophenyl)-9,9-dimethyl-5,6,7,8-tetrahydro-5,8-methanocinnolin-8-yl)-N-((S)-2-hydroxypropyl)pyrazine-2-carboxamide]", "pIC50": 7.50}, {"compound": "C[C@H](CO)NC(=O)c1cncc([C@@]23CC[C@@H](c4cc(-c5c(F)cccc5F)nnc42)C3(C)C)n1", "note": "[Example 51, 6-((5R,8S)-3-(2,6-difluorophenyl)-9,9-dimethyl-5,6,7,8-tetrahydro-5,8-methanocinnolin-8-yl)-N-((R)-1-hydroxypropan-2-yl)pyrazine-2-carboxamide]", "pIC50": 7.23}, {"compound": "C[C@@H](CO)NC(=O)c1cncc([C@@]23CC[C@@H](c4cc(-c5c(F)cccc5F)nnc42)C3(C)C)n1", "note": "[Example 52, 6-((5R,8S)-3-(2,6-difluorophenyl)-9,9-dimethyl-5,6,7,8-tetrahydro-5,8-methanocinnolin-8-yl)-N-((S)-1-hydroxypropan-2-yl)pyrazine-2-carboxamide]", "pIC50": 7.42}, {"compound": "CC1(C)[C@H]2CC[C@]1(c1cc(C(=O)O)ccn1)c1nnc(-c3c(F)cccc3F)cc12", "note": "[Example 53]", "pIC50": 6.32}, {"compound": "C[C@H](CO)NC(=O)c1cccc([C@@]23CC[C@@H](c4cc(-c5c(F)cccc5F)nnc42)C3(C)C)n1", "note": "[Example 54, 6-((5R,8S)-3-(2,6-difluorophenyl)-9,9-dimethyl-5,6,7,8-tetrahydro-5,8-methanocinnolin-8-yl)-N-((R)-1-hydroxypropan-2-yl)picolinamide]", "pIC50": 7.53}, {"compound": "C[C@@H](CO)NC(=O)c1cccc([C@@]23CC[C@@H](c4cc(-c5c(F)cccc5F)nnc42)C3(C)C)n1", "note": "[Example 55, 6-((5R,8S)-3-(2,6-difluorophenyl)-9,9-dimethyl-5,6,7,8-tetrahydro-5,8-methanocinnolin-8-yl)-N-((S)-1-hydroxypropan-2-yl)picolinamide]", "pIC50": 7.67}, {"compound": "CC1(C)[C@H]2CC[C@]1(c1cccc(C(=O)NCCO)n1)c1nnc(-c3c(F)cccc3F)cc12", "note": "[Example 56, 6-((5R,8S)-3-(2,6-difluorophenyl)-9,9-dimethyl-5,6,7,8-tetrahydro-5,8-methanocinnolin-8-yl)-N-(2-hydroxyethyl)picolinamide]", "pIC50": 7.45}, {"compound": "CC1(C)[C@H]2CC[C@]1(c1cccc(C(=O)N3CCS(=O)(=O)CC3)n1)c1nnc(-c3c(F)cccc3F)cc12", "note": "[Example 57, (6-((5R,8S)-3-(2,6-difluorophenyl)-9,9-dimethyl-5,6,7,8-tetrahydro-5,8-methanocinnolin-8-yl)pyridin-2-yl)(1,1-dioxidothiomorpholino)methanone]", "pIC50": 7.15}]}]}
